The values that follow come from patent US20190011433A1, “CELL CO-CULTURE SYSTEMS AND USES THEREOF” (Dana-Farber Cancer Institute, Inc., priority 2007, published 2019).

Molecules are shown by their SMILES. Entries after “also recorded” stand apart in the source; their conditions may differ.

Assay [1] concerns KU812F-luc leukemia cells. The assay is described as follows: CS-BLI drug sensitivity of KU812F-luc leukemia cells in presence vs absence of HS-5 BMSCs. It counts as cell-based. The settings on record: presence vs absence of HS-5 BMSCs (10,000 per well). The text has this: In another set of experiments, Applicants tested and observed similar protective/sensitization effect of stroma cell on KU812F-luc cells on various drugs (data not shown).
(§1) Applicants expanded the application of in vitro compartment-specific bioluminescence imaging assays beyond the MM cells to other tumor models, namely a few leukemic cell lines. Applicants specifically tested luciferase-expressing K562-luc-neo and KU812F-luc-neo leukemic cells against standard anti-leukemia agents, including AraC and Doxo, in the presence vs. absence of HS-5 stromal cells (FIG. 7A and FIG. 7B).

Assay [2] concerns MDA-MB-231met-luc-neo cells. The assay is described as follows: CS-BLI drug sensitivity of MDA-MB-231met-luc-neo cells alone or with HS-5 BMSCs. It counts as cell-based. The settings on record: MDA-MB-231met-luc-neo alone or with HS-5 BMSCs (10,000/well), 48 hrs. The procedure:
(§2) MDA-MB-231met-luc-neo (FIG. 18A, FIG. 18B), A375-luc-neo (FIG. 18C, FIG. 18D) and FRO-luc-neo (FIG. 18E, FIG. 18F) cells were plated either alone or mixed with HS-5 BMSCs (10,000 /well) and treated the following day. The cultures of tumor cells and their co-cultures with BMSCs were incubated for an additional 48 hrs.

A further assay concerns FRO-luc-neo cells. The assay is described as follows: CS-BLI drug sensitivity of FRO-luc-neo cells alone or with HS-5 BMSCs. The settings on record: FRO-luc-neo alone or with HS-5 BMSCs (10,000/well), 48 hrs. It counts as cell-based. The procedure:
as §2

The subject of assay [3] is MM-1S-GFP-luc myeloma cells. Put plainly: Flow cytometry (Apo2.7) drug sensitivity testing in tumor-stromal co-culture. Format: cell-based, human. The settings on record: Doxo 250 ng/mL, 48 hrs. How it is done:
Applicants also evaluated the anti-tumor effects of these drugs in the presence of stromal cells, and compared the results obtained with in vitro compartment-specific bioluminescence vs. flow cytometric evaluation of drug-induced cell death. Specifically, luciferase-expressing MM cells were treated in vitro with Doxo (250 ng/mL) or vehicle, in the absence vs. presence of bone marrow stromal cells (BMSCs). For flow cytometry-based drug sensitivity testing in tumor-stromal co-culture, tumor cell viability in the presence vs. absence of stromal cells was evaluated by flow cytometry. Specifically, after incubation with drug or vehicle, MM-1S-GFP-luc myeloma cells were stained with Apo2.7 (BD Biosciences) to detect apoptotic cells. GFP positive myeloma cells were gated to distinguish them from GFP negative stromal cells in the co-cultures. The ratio of Apo2.7 positive cells in the GFP^+ compartment of the drug-treated condition vs. the vehicle-treated condition provided a quantified expression of viable cells in response to drug treatment. […] These flow cytometric results were consistent with results obtained with CS-BLI based applications as described in Example III.
On the technique in general: A flow cytometer gives signals particle by particle.

A further assay relates to K562-luc leukemia cells. The assay is described as follows: CS-BLI drug sensitivity of K562-luc leukemia cells in presence vs absence of HS-5 BMSCs. It counts as cell-based. The settings on record: presence vs absence of HS-5 BMSCs (10,000 per well).
Text: as §1

For assay [4], the system named is MM-1R-GFP-luc myeloma cells. The assay is described as follows: CS-BLI drug sensitivity of MM-1R-GFP-luc cells in presence vs absence of stromal cells. The settings on record: MM-1R-GFP-luc (Dex-resistant), presence vs absence of HS-5 BMSCs (10,000 per well).
Assay [5] has as its system MM-1S-GFP-luc myeloma cells. The assay is described as follows: CS-BLI drug sensitivity of MM-1S-GFP-luc cells in presence vs absence of stromal cells. Format: cell-based, human. The procedure:
Luciferin (7.5 mg/mL; Xenogen Corp, Alameda, Calif.) was added at the volume stated in each experiment. Cell viability and the precise cell counts were established by Trypan blue exclusion assay immediately before plating of the cells. Compartment-specific bioluminescence emitted by individual wells of these plates was measured with two different bioluminescence imaging modalities, namely a Xenogen IVIS® Imaging System (FIG. 1A and FIG. 1B) and a standard luminometer plate reader—Luminoskan luminometer (Labsystems, MA) (FIG. 1C). The results with each method were analyzed for the linearity of the bioluminescent signal vs. cell number using the Living Image® software (Xenogen Corp, Alameda Calif.).

In a further assay the test system is A375-luc-neo cells. The assay is described as follows: CS-BLI drug sensitivity of A375-luc-neo cells alone or with HS-5 BMSCs. Format: cell-based. Conditions: A375-luc-neo alone or with HS-5 BMSCs (10,000/well), 48 hrs. How it is done:
as §2

In the case of `COc1cccc2c1C(=O)c1c(O)c3c(c(O)c1C2=O)C[C@@](O)(C(=O)CO)C[C@@H]3O[C@H]1C[C@H](N)[C@H](O)[C@H](C)O1` [Doxo, Doxorubicin], the “effect of BMSC co-culture on tumor cell response to drug (protection)” value in assay [1] is “did not affect their response”; in assay [2], “modest protection”; in the assay with FRO-luc-neo cells, “modest protection”; in the assay on K562-luc leukemia cells, “do not confer protection”; in assay [4], “attenuated the responses; also recorded: confer protection”; in assay [5] (presence vs absence of HS-5 BMSCs (10,000 per well)) it was “attenuated the responses; also recorded: conferred protection; also recorded: confer protection”. For the same compound, the “effect of BMSC co-culture on tumor cell response to drug (protection)” value is given as “protective effects; also recorded: conferred protection” in assay [5] (presence vs absence of KM101, KM103, KM104, KM105 BMSC lines, Doxo 0-250 ng/mL) and “no protection” with A375-luc-neo cells. Also, the “Apo2.7 expression in GFP+ myeloma cells, co-culture with HS-5 vs absence of stroma” value in assay [3] is recorded as “decreased expression of Apo2.7”.
